According to publication PMC9611297, “Design, Synthesis, Anticancer Activity and Molecular Docking of New 1,2,3-Triazole-Based Glycosides Bearing 1,3,4-Thiadiazolyl, Indolyl and Arylacetamide Scaffolds” (Molecules, 2022):
Read-outs that look alike come from different tables or passages of the source.

What was measured:
[1] = system: MCF-7 (human breast adenocarcinoma) cell line; experiment: MTT cytotoxicity assay, MCF-7; settings: read-out: IC50 (µM) ± SD MCF-7
Experimental: (§3) This test is based on MTT cleavage by mitochondrial dehydrogenases from viable cells [50, 51, 52]. […] After incubation, the media were removed, and 40 µL of MTT (2.5 mg mL^−1) was added to each well. Incubation was resumed for an additional 4 h. The purple formazan dye crystals were solubilized with 200 µL DMSO. Absorbance was measured at 590 nm in a Spectra Max Paradigm Multi-Mode microplate reader (Molecular Devices, LLC, San Jose, CA, USA). Relative cell viability was expressed as the mean percentage of viable cells compared to the untreated control cells.
(§4) All experiments were conducted in triplicate and repeated on three different days. All values are reported as mean ± SD. IC50 values were determined by SPSS Inc. probit analysis (IBM Corp., Armonk, NY, USA).

[2] = system: HCT-116 (human colorectal carcinoma) cell line; experiment: MTT cytotoxicity assay, HCT-116; settings: read-out: IC50 (µM) ± SD HCT-116
Experimental: as §3, §4

[3] = biological target: EGFR^WT (Homo sapiens, UniProt P00533); experiment: EGFR^WT kinase inhibition (HTRF assay); assay type: biochemical; settings: ATP 1.65 μM, 30 min, room temperature, read-out: IC50 (Mean ± SEM) (µM) EGFR^WT
Chain of EGFR^WT (P00533 25-1210): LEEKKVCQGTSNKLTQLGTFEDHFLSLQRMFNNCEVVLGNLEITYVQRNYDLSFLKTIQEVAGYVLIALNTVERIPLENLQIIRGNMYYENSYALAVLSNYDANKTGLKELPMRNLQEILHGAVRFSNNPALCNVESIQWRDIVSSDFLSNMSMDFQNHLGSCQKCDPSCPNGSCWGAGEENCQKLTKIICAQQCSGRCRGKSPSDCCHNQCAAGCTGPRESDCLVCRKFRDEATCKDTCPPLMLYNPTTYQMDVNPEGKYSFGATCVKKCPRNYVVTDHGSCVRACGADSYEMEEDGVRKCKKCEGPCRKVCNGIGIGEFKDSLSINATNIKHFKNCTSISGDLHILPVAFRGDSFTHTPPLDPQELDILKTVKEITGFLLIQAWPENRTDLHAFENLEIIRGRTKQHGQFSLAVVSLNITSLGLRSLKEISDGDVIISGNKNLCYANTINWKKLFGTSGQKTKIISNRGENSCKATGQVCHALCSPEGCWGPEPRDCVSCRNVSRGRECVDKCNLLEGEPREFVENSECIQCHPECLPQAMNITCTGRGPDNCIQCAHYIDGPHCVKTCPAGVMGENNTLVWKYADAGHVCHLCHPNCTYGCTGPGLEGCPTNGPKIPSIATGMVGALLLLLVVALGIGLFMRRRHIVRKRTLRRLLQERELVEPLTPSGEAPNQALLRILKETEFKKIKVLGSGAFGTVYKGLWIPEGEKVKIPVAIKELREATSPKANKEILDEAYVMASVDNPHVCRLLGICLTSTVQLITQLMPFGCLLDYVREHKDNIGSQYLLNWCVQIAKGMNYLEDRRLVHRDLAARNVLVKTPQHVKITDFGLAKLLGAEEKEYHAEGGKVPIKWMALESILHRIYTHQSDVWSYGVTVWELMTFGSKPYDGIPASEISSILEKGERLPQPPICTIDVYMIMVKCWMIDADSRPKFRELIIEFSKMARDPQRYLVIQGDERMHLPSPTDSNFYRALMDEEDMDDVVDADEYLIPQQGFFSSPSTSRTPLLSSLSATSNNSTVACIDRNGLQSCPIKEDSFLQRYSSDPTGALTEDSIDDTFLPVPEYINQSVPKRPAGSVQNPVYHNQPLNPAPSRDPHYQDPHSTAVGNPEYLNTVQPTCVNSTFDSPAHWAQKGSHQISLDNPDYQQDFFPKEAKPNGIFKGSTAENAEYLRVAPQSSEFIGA
Experimental: (§1) A homogeneous time-resolved fluorescence (HTRF) assay was applied in this test (Sigma). […] The assay was conducted for 30 min at room temperature. The reaction was stopped by the addition of detection reagents that contained EDTA. […] Three independent experiments were performed for each concentration.

[4] = biological target: EGFR^T790M (Homo sapiens, UniProt P00533, T790M); experiment: EGFR^T790M kinase inhibition (HTRF assay); assay type: biochemical; settings: ATP 1.65 μM, 30 min, room temperature, read-out: IC50 (Mean ± SEM) (µM) EGFR^T790M
Chain of EGFR^T790M (P00533 25-1210 T790M): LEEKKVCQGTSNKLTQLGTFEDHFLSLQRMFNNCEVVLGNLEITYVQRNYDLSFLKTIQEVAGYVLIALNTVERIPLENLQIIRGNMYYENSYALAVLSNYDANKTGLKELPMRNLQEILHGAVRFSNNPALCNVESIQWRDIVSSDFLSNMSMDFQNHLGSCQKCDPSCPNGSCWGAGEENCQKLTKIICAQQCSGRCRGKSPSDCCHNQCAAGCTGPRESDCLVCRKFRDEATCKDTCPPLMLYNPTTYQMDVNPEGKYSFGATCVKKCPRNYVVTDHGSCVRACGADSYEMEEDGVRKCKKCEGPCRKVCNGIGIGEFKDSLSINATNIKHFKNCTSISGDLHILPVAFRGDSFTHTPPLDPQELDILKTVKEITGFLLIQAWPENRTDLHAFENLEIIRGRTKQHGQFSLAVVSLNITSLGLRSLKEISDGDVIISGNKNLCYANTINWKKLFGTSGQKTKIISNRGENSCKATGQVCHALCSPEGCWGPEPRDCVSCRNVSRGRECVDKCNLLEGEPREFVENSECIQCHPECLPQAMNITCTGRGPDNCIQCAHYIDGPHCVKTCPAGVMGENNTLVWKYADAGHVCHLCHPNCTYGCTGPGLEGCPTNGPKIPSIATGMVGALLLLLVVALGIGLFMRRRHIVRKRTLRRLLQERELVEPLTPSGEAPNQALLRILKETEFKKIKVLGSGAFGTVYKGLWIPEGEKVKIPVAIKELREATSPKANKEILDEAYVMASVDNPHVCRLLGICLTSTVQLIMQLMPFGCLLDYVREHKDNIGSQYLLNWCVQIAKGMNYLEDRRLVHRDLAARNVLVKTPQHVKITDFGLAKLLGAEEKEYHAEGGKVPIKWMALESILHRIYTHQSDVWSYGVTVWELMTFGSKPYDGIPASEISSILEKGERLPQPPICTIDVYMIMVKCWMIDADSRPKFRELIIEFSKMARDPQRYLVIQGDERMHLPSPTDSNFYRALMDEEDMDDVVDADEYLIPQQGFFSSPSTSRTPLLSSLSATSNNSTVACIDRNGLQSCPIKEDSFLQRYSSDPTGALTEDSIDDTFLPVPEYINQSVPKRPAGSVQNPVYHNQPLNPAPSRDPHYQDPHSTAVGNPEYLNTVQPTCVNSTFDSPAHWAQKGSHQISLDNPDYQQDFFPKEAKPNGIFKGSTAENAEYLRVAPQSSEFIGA
Experimental: as §1

[5] = biological target: HER-2 (Homo sapiens, UniProt P04626); experiment: HER-2 kinase inhibition (HTRF assay); assay type: biochemical; settings: ATP 1.65 μM, 30 min, room temperature, read-out: IC50 (Mean ± SEM) (µM) HER-2 (converted)
Chain of HER-2 (P04626 23-1255): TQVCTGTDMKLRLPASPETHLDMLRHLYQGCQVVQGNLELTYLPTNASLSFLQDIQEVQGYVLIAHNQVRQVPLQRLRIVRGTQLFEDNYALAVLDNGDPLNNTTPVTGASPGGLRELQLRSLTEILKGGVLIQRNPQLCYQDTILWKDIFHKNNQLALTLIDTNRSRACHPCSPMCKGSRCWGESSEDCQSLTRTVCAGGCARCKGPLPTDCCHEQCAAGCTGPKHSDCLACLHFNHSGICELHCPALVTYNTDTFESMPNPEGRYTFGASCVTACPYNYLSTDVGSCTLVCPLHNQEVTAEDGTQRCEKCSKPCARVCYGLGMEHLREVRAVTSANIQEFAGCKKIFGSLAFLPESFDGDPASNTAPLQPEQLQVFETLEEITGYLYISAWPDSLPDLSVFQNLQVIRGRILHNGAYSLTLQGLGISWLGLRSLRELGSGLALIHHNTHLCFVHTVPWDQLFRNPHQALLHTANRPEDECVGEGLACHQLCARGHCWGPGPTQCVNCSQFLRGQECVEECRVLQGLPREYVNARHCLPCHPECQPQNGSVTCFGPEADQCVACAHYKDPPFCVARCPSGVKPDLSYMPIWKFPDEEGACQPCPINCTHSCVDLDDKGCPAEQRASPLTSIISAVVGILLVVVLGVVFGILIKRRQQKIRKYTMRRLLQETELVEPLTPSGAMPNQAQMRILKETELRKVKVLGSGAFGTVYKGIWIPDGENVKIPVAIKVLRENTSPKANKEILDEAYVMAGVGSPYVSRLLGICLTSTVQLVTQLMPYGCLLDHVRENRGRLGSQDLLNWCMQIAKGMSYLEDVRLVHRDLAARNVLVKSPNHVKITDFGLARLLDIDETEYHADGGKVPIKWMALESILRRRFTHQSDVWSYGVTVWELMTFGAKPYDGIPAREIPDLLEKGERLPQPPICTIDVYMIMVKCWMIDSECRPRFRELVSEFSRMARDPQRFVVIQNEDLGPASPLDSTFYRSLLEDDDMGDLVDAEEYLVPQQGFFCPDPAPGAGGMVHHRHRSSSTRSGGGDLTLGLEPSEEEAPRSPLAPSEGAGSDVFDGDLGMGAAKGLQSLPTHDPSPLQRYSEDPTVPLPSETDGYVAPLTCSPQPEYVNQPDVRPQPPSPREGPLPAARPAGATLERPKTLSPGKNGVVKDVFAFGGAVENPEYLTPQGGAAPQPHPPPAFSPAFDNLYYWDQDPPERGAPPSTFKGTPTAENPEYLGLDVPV
Experimental: as §1

[6] = system: MCF-7 cells; experiment: Annexin V/PI apoptosis detection by flow cytometry; assay type: cell-based, human; settings: MCF-7, 24 h, at IC50 concentration (7: 0.5 μM; 15: 0.6 μM); for Apoptosis Late: control 0.28%; for Apoptosis Early: control 0.46%; for Necrosis: control 1.25%; for Apoptosis Total: control 1.99
Experimental: The proportion of late apoptosis obtained with compounds 7 and 15 was higher than that of the early phase, leading to the induction of apoptosis and confirming the effectiveness of these derivatives in cancer therapy.
(§2) Apoptosis investigation and cell cycle analysis were performed by flow cytometry. MCF-7 cells were seeded at 8 × 10^4 and incubated at 37 °C in 5% CO2 overnight. After treatment with the tested compounds 7 and 15 for 24 h, cell pellets were collected and centrifuged (300 g, 5 min). For cell cycle analysis, cell pellets were fixed with 70% ethanol on ice for 15 min and collected again. The pellets were incubated with propidium iodide (PI) staining solution at room temperature for 1 h and analyzed with a Gallios flow cytometer (Beckman Coulter, Brea, CA, USA). Apoptosis detection was carried out by the FITC AnnexinV/PI commercial kit (Becton Dickenson, Franklin Lakes, NJ, USA) following the manufacturer’s protocol. The samples were analyzed by fluorescence-activated cell sorting (FACS) with a Gallios flow cytometer (Beckman Coulter, Brea, CA, USA) within 1 h after staining. Data were analyzed using Kaluza v 1.2 (Beckman Coulter).

[7] = system: MCF-7 cells; experiment: Cell cycle analysis (PI staining, flow cytometry); assay type: cell-based, human; settings: MCF-7, 24 h treatment; for cell accumulation at sub-G1 phase (%pre G): untreated 1.99%; for cell accumulation at S phase (%DIP S): untreated 33.85%
Experimental: Moreover, the cessation of cell division at cell cycle checkpoints is considered one of the main roles of anticancer therapeutics.
as §2

[8] = MTT assay, 48 h incubation, mean ± SD

Row | SMILES | melting point [°C] | IC50 ([1]; Homo sapiens, MCF7, 48 h) [µM] | IC50 ([2]; Homo sapiens, HCT-116, 48 h) [µM] | other results
1 | CCn1cc(C=Nc2nnc(SCCn3cc(CO[C@@H]4OC[C@@H](OC(C)=O)[C@H](OC(C)=O)[C@H]4OC(C)=O)nn3)s2)c2ccccc21 [Compound 6, 1-(1-Ethyl-1H-indol-3-yl)-N-(5-((2-(4-({[2,3,4-tri-O-acetyl-β-D-xylopyranos-yl]oxy}methyl)-1H-1,2,3-triazol-1-yl)ethyl)thio)-1,3,4-thiadiazol-2-yl)methanimine] | 136 to 138 | 10.8 ± 1.5 | 20.8 ± 0.2 | –
2 | O=C(Cn1cc(CO[C@@H]2O[C@H](CO)[C@H](O)[C@H](O)[C@H]2O)nn1)Nc1ccc(F)cc1 [Compound 18, 2-(4-({[β-D-Galactopyranosyl]oxy}methyl)-1H-1,2,3-triazol-1-yl)-N-(4-fluorophenyl)acetamide] | – | 31.6 ± 0.5 | 28.8 ± 0.1 | –
3 | CCn1cc(C=Nc2nnc(SCCn3cc(CO[C@@H]4OC[C@@H](O)[C@H](O)[C@H]4O)nn3)s2)c2ccccc21 [Compound 8, 1-(1-Ethyl-1H-indol-3-yl)-N-(5-((2-(4-({[β-D-Xylopyranosyl]oxy}methyl)-1H-1,2,3-triazol-1-yl)ethyl)thio)-1,3,4-thiadiazol-2-yl)methanimine] | 203 to 204 | 4.2 ± 0.1 | 4.6 ± 0.1 | IC50 [3]: 0.38 ± 0.05 µM; IC50 [4]: 1.95 ± 0.02 µM; IC50 [5]: 2.77 ± 0.13 µM
4 | CCn1cc(C=Nc2nnc(SCCn3cc(CO[C@@H]4O[C@H](CO)[C@@H](O)[C@H](O)[C@H]4O)nn3)s2)c2ccccc21 [Compound 7, 1-(1-Ethyl-1H-indol-3-yl)-N-(5-((2-(4-({[β-D-glucopyranosyl]oxy}methyl)-1H-1,2,3-triazol-1-yl)ethyl)thio)-1,3,4-thiadiazol-2-yl)methanimine] | 210 to 213 | 0.5 | 15.5 ± 0.2 | IC50 [3]: 0.3 ± 0.01 µM; IC50 [4]: 1.12 ± 0.55 µM; IC50 [5]: 2.25 ± 0.3 µM; Apoptosis Late [6]: 18.81%; Apoptosis Early [6]: 4.39%; Necrosis [6]: 11.41%; Apoptosis Total [6]: 34.61%; cell accumulation at sub-G1 phase (%pre G) [7]: 34.61%; cell accumulation at S phase (%DIP S) [7]: 43.51%
5 | CCn1cc(C=Nc2nnc(SCCBr)s2)c2ccccc21 [Compound 2, N-(5-((2-Bromoethyl)thio)-1,3,4-thiadiazol-2-yl)-1-(1-ethyl-1H-indol-3-yl)methanimine] | 90 to 92 | – | – | IC50 [1, 8]: 14.1 ± 0.3 µM; IC50 [2, 8]: 52.7 ± 0.6 µM
6 | CC(=O)OC[C@H]1O[C@@H](OCc2cn(CC(=O)Nc3ccc(F)cc3)nn2)[C@H](OC(C)=O)[C@@H](OC(C)=O)[C@H]1OC(C)=O [Compound 14, 2-(4-({[2,3,4,6-Tetra-O-acetyl-β-D-galactopyranosyl]oxy}methyl)-1H-1,2,3-triazol-1-yl)-N-(4-fluorophenyl)acetamide] | – | 35.3 ± 0.3 | 33.8 ± 0.3 | –
7 | O=C(Cn1cc(CO[C@@H]2OC[C@@H](O)[C@H](O)[C@H]2O)nn1)Nc1ccc(F)cc1 [Compound 17, 2-(4-({[β-D-Xylopyranosyl]oxy}methyl)-1H-1,2,3-triazol-1-yl)-N-(4-fluorophenyl)acetamide] | 197 to 198 | 30.1 ± 0.4 | 26.5 ± 0.3 | –
8 | CCn1cc(C=Nc2nnc(SCCN=[N+]=[N-])s2)c2ccccc21 [Compound 3, N-(5-((2-Azidoethyl)thio)-1,3,4-thiadiazol-2-yl)-1-(1-ethyl-1H-indol-3-yl)methanimine] | 101 to 102 | 1.1 ± 0.1 | 30.8 ± 0.4 | –
9 | CC(=O)O[C@@H]1[C@@H](OC(C)=O)[C@H](OCc2cn(CC(=O)Nc3ccc(F)cc3)nn2)OC[C@H]1OC(C)=O [Compound 13, 2-(4-({[2,3,4-Tri-O-acetyl-β-D-xylopyranosyl]oxy}methyl)-1H-1,2,3-triazol-1-yl)-N-(4-fluorophenyl)acetamide] | 142 to 144 | 34.4 ± 0.4 | 38.2 ± 0.5 | –
10 | CCn1cc(/C=N\c2nnc(S)s2)c2ccccc21 [Compound 1] | – | 18.1 ± 0.2 | 46.9 ± 0.5 | –
11 | CC(=O)OC[C@H]1O[C@@H](OCc2cn(CC(=O)Nc3ccc(C)cc3)nn2)[C@H](OC(C)=O)[C@@H](OC(C)=O)[C@H]1OC(C)=O [Compound 12, 2-(4-({[2,3,4,6-Tetra-O-acetyl-β-D-galactopyranosyl]oxy}methyl)-1H-1,2,3-triazol-1-yl)-N-(p-tolyl)acetamide] | 98 to 99 | 5.7 ± 0.1 | 2.2 ± 0.1 | IC50 [3]: 12.7 ± 0.15 µM; IC50 [4]: 15.2 ± 0.2 µM; IC50 [5]: 18.4 µM
12 | COc1cccc2c1C(=O)c1c(O)c3c(c(O)c1C2=O)C[C@@](O)(C(=O)CO)C[C@@H]3O[C@H]1C[C@H](N)[C@H](O)[C@H](C)O1 [Doxorubicin, reference compound] | – | 9.4 ± 0.1 | 12.1 ± 0.2 | –
13 | CC(=O)O[C@@H]1[C@@H](OC(C)=O)[C@H](OCc2cn(CC(=O)Nc3ccc(C)cc3)nn2)OC[C@H]1OC(C)=O [Compound 11, 2-(4-({[2,3,4-Tri-O-acetyl-β-D-xylopyranosyl]oxy}methyl)-1H-1,2,3-triazol-1-yl)-N-(p-tolyl)acetamide] | 95 to 96 | 0.8 | 15.4 ± 0.2 | IC50 [3]: 6.45 ± 0.1 µM; IC50 [4]: 11.8 ± 0.05 µM; IC50 [5]: 8.6 ± 0.2 µM
14 | Cc1ccc(NC(=O)CN=[N+]=[N-])cc1 [Compound 9a] | – | 24.1 ± 0.3 | 42.3 ± 0.6 | –
15 | CCn1cc(C=Nc2nnc(SCCn3cc(CO[C@@H]4O[C@H](COC(C)=O)[C@@H](OC(C)=O)[C@H](OC(C)=O)[C@H]4OC(C)=O)nn3)s2)c2ccccc21 [Compound 5, 1-(1-Ethyl-1H-indol-3-yl)-N-(5-((2-(4-({[2,3,4,6-tetra-O-acetyl-β-D-glucopyranosyl]oxy}methyl)-1H-1,2,3-triazol-1-yl)ethyl)thio)-1,3,4-thiadiazol-2-yl)methanimine] | 131 to 132 | 13.9 ± 0.2 | 22.6 ± 0.2 | –
16 | Cc1ccc(NC(=O)Cn2cc(CO[C@@H]3O[C@H](CO)[C@H](O)[C@H](O)[C@H]3O)nn2)cc1 [Compound 16, 2-(4-({[β-D-Galactopyranosyl]oxy}methyl)-1H-1,2,3-triazol-1-yl)-N-(p-tolyl)acetamide] | 199 to 200 | 20.3 ± 0.9 | 35.7 ± 0.4 | –
17 | [N-]=[N+]=NCC(=O)Nc1ccc(F)cc1 [Compound 9b] | – | 26.4 ± 0.3 | 33.3 ± 0.4 | –
18 | Cc1ccc(NC(=O)Cn2cc(CO[C@@H]3OC[C@@H](O)[C@H](O)[C@H]3O)nn2)cc1 [Compound 15, 2-(4-({[β-D-Xylopyranosyl]oxy}methyl)-1H-1,2,3-triazol-1-yl)-N-(p-tolyl)acetamide] | 193 to 194 | 0.6 | 11.4 ± 0.3 | IC50 [3]: 0.21 ± 0.05 µM; IC50 [4]: 1.5 ± 0.11 µM; IC50 [5]: 2.18 ± 0.42 µM; Apoptosis Late [6]: 25.48%; Apoptosis Early [6]: 2.69%; Necrosis [6]: 14.28%; Apoptosis Total [6]: 42.45%; cell accumulation at sub-G1 phase (%pre G) [7]: 42.45%; cell accumulation at S phase (%DIP S) [7]: 52.08%
